{"source": "patent US11331364B2", "about": "“Use for JNK inhibitor molecules for treatment of various diseases” (Xigen Inflammation Ltd., priority 2014, dated 2022)", "key": {"[1]": {"system": "primary rat lymph-nodes purified T cells", "assay": "CD3/CD28-induced IL-2 release in primary rat lymph-nodes purified T cells", "format": "cell-based", "conditions": "added 1 h before CD3/CD28 (2 μg/mL); supernatant 24 h", "description": "Control rat were sacrificed and lymph-nodes were harvested. T cells further were purified (using magnetic negative selection) and plated into 96-well plates at 200.000 cells/well. Cells were treated with anti-rat CD3 and anti-rat CD28 antibodies (2 μg/mL). JNK inhibitor with SEQ ID NO: 172 was added to the cultures 1 h before CD3/CD28 treatment and IL-2 release was assessed in supernatant 24 h after treatment.\nControl animal were sacrificed, lymph nodes (LN) were harvested and kept in complete RPMI medium. LN were smashed with complete RPMI on 70 μm filter using a 5 ml piston. A few drops of media were added to keep strainer wet. Cells were centrifuged for 7 min at 450 g and 4° C. Pellet was resuspended in 5 ml fresh medium. Cells were passed again through cell strainer. An aliquot of cells was counted, while cells were centrifuged again 10 min at 1400 rpm and 4° C. Cells were resuspended in MACS buffer (80 μl of MACS buffer per 10^7 cells). 10 μl of anti-rat MHC microbeads were added per 10 million cells, cells were incubated for 15 min at 4°-8° C. Cells were washed with 15 ml MACS buffer and centrifuge for 7 min at 700 g and 4° C. […] Resuspended cells were counted and plated at density of 200000 cells/well in 100 μl of complete medium. […] Cytokines were then measured using standard Elisa kits. Results are expressed as pg/ml of supernatant of the measured cytokine. […]"}, "[2]": {"system": "Adriamycin-induced nephropathy in rats", "assay": "Adriamycin-induced nephropathy", "format": "in vivo, rat", "conditions": "2 mg/kg IV Day 0", "excerpt": "Adriamycin treatment induces glomerular disease in rat and mice mimicking human focal segmental and glomerular sclerosis (FSGS). In this model, tubular and interstitial inflammatory lesions occur during the disease course, partly due to heavy proteinuria. In the absence of therapy, kidney disease progresses to terminal renal failure within eight weeks. Podocyte injury is one of the initial steps in the sequences leading to glomerulosclerosis. The aim of the study was to investigate whether a JNK inhibitor could prevent the development of renal lesions and the renal failure.\n30 male Sprague-Dawley rats (Charles River) were used in this study (divided into 3 groups of ten rats). Nephropathy was induced by a single intravenous injection of Adriamycin […] on Day 0. The JNK inhibitor of SEQ ID NO: 172 (2 mg/kg; in NaCl 0.9%) or vehicle was administered intravenously into the tail vein on Day 0. The administration volume was 0.2 ml.\nRetroorbital blood was collected at Days 7, 14, 28, 42 and 56 from 4 rats per group. Serum creatinine concentrations, blood urea and protidemia were measured using appropriate kits from Advia Chemistry 1650 (Bayer Healthcare AG, Leverkusen, Germany).\nTwo rats per group were sacrificed on Days 7, 14, 28, 42 and 56 after anesthesia. After animal sacrifice, both kidneys were collected. For histopathological examination fixed tissue specimens were dehydrated in graded alcohol solutions, cleared in toluene, and embedded in paraffin. Sections (4 µm) were stained with periodic acid-Schiff (PAS), and Masson's trichrome staining was performed to detect collagen deposition. Glomerular and tubulointerstitial sclerosis were quantified under microscope."}, "[3]": {"system": "human whole blood", "assay": "PMA+ionomycin-induced cytokine release in human whole blood", "format": "cell-based", "conditions": "1, 3, 10 μM; 4 hours", "description": "FIG. 19 JNK inhibition and IL-2 release in human whole blood. The JNK inhibitor with SEQ ID NO: 172 was added at three different concentrations, namely 1, 3 and 10 μM 1 h before whole blood stimulation with PMA+ionomycin (25/700 ng/mL, 50/800 ng/mL and 50/1000 ng/mL) for 4 hours.\nFIG. 20 JNK inhibition and IFN-γ release in human whole blood. The JNK inhibitor with SEQ ID NO: 172 was added at three different concentrations, namely 1, 3 and 10 μM 1 h before whole blood stimulation with PMA+ionomycin (25/700 ng/mL, 50/800 ng/mL and 50/1000 ng/mL) for 4 hours.\nFIG. 21 JNK inhibition and TNF-α release in human whole blood. The JNK inhibitor with SEQ ID NO: 172 was added at three different concentrations, namely 1, 3 and 10 μM 1 h before whole blood stimulation with PMA+ionomycin (25/700 ng/mL, 50/800 ng/ml and 50/1000 ng/mL) for 4 hours.\nWhole blood is collected from anesthetized rat or human healthy volunteers using a venipuncture connected to a pre-labeled vacuum tube containing sodium citrate. Tubes are gently mixed by inversion 7-8 times; and are then kept at RT until stimulation. JNK inhibitor of SEQ ID NO: 172 is prepared 6 times concentrated in PBS, and 30 μl/well of mix is added into 96-well plate. Whole blood is diluted by 1:2 in PBS and 120 μl of diluted blood is added in each well where either PBS alone or JNK inhibitor of SEQ ID NO: 172 has been previously added. Whole blood is incubated at 37° C.; 85 rpm (Stuart Orbital incubator SI500) for 60 min. Activators (LPS) are the prepared, 30 μl/well of LPS, 6 times concentrated. After 60 min incubation, LPS is added to the blood, blood is mixed by pipetting up and down, and then kept for 4 h under agitation (85 rpm), at 37° C. After the 4 h incubation, the plates are centrifuged at about 770 g, 4° C. for 15 min in a pre-cooled centrifuge. […] Cytokine (IL-6, IL-2, IFNγ and TNFα) were then measured using standard Elisa kits (e.g. from R&D Systems: DuoSet Elisas; or from BD Biosciences: BD Opteia Set Elisa). Results are expressed as pg/ml of supernatant of the measured cytokine. […]"}}, "note": "Square brackets hold non-standard residues; d marks the D form. Peptide text beside a SMILES is read from it.", "data": [{"smiles": "CC(C)C[C@H](NC(=O)[C@H](CC(N)=O)NC(=O)[C@H](CC(C)C)NC(=O)[C@@H](NC(=O)[C@@H](C)NC(=O)[C@@H]1CCCN1C(=O)[C@H](CCCNC(=N)N)NC(=O)[C@@H](CCCCN)NC(=O)[C@@H]1CCCN1C(=O)[C@H](CCCNC(=N)N)NC(=O)[C@@H](CCCNC(=N)N)NC(=O)[C@H](CCCNC(=N)N)NC(=O)[C@H](CCCNC(=N)N)NC(=O)[C@H](CCC(N)=O)NC(=O)[C@@H](CCCNC(=N)N)NC(=O)[C@H](CCCNC(=N)N)NC(=O)[C@H](CCCCN)NC(=O)[C@H](CCCCN)NC(=O)[C@H](N)CCCNC(=N)N)[C@@H](C)O)C(=O)N[C@H](Cc1ccccc1)C(N)=O", "note": "[SEQ ID NO: 172, rKKRrQRRrRPkRPaTLNLf] (H-[dR]KKR[dR]QRR[dR]RP[dK]RP[dA]TLNL[dF]-NH2; N-terminus assumed)", "values": [{"measurement": "CD3/CD28-induced IL-2 release", "setting": "[1]", "result": "Dose-dependent inhibition"}, {"measurement": "kidney histopathology (PAS, Masson trichrome)", "setting": "[2]; Day 8", "result": "relatively normal appearance"}, {"measurement": "kidney histopathology (PAS, Masson trichrome)", "setting": "[2]; Day 56", "result": "few focal and segmental glomerulosclerosis and tubulointerstitial fibrosis"}, {"measurement": "urea serum level", "setting": "[2]; throughout the course of the disease", "result": "below 10 mmol/l"}, {"measurement": "PMA+ionomycin-induced IFN-γ release", "setting": "[3]", "result": "did reduce the PMA+ionomycin-induced IFN-γ release in a dose-dependent manner"}, {"measurement": "PMA+ionomycin-induced IL-2 release", "setting": "[3]", "result": "did reduce the PMA+ionomycin-induced IL-2 release in a dose-dependent manner"}, {"measurement": "PMA+ionomycin-induced TNF-α release", "setting": "[3]", "result": "did reduce the PMA+ionomycin-induced TNF-α release in a dose-dependent manner"}]}]}
